Data published in patent publication US20230203098A1, “HUMAN TRANSFERRIN RECEPTOR BINDING PEPTIDE” (priority 2020, published 2023).
Where two headings read alike, the source gives them in different places. Where a SMILES comes first, the peptide text is derived from it. Bridges are numbered along the chain shown (N, C = ends). [ ]: non-standard residue; d: D form. PEG12 = NCCOCCOCCOCCOCCOCCOCCOCCOCCOCCOCCOCCOCCC(=O)O; NMePhe(3-Cl) = CN[C@@H](Cc1cccc(Cl)c1)C(=O)O; NMeW = CN[C@@H](Cc1c[nH]c2ccccc12)C(=O)O; NMeY = CN[C@@H](Cc1ccc(O)cc1)C(=O)O; NMeF = CN[C@@H](Cc1ccccc1)C(=O)O; PEG4 = NCCOCCOCCOCCOCCC(=O)O; Aib = CC(C)(N)C(=O)O

Target: transferrin receptor (hTfR) (Homo sapiens, UniProt P02786)
Experiment: Intermolecular interaction evaluation test between transferrin receptor (hTfR) and peptide by surface plasmon resonance (SPR)
Format: binding
In short: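 Receptor was Ni-captured and EDC/NHS-fixed on an NTA chip; running buffer HEPES pH 8.0 with NaCl, Tween 20, BSA and 1.0% DMSO.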

[1] = surface plasmon resonance, peptide vs hTfR, read-out: KD value, hTfR binding by SPR (class symbol)
[2] = hTfR binding by SPR, hTfR No. 894 variant peptides, linker-added peptides and payload conjugates (Table 2), read-out: KD value obtained from the SPR measurement
[3] = binding to hTfR by SPR, Table 2 peptides, read-out: KD value (SPR) class
[4] = SPR, hTfR No. 894 variants with PEG12c linker (Table 2), read-out: KD
[5] = surface plasmon resonance, hTfR, read-out: KD value for hTfR by SPR (class symbol)

Chain of transferrin receptor (hTfR) (P02786 whole entry): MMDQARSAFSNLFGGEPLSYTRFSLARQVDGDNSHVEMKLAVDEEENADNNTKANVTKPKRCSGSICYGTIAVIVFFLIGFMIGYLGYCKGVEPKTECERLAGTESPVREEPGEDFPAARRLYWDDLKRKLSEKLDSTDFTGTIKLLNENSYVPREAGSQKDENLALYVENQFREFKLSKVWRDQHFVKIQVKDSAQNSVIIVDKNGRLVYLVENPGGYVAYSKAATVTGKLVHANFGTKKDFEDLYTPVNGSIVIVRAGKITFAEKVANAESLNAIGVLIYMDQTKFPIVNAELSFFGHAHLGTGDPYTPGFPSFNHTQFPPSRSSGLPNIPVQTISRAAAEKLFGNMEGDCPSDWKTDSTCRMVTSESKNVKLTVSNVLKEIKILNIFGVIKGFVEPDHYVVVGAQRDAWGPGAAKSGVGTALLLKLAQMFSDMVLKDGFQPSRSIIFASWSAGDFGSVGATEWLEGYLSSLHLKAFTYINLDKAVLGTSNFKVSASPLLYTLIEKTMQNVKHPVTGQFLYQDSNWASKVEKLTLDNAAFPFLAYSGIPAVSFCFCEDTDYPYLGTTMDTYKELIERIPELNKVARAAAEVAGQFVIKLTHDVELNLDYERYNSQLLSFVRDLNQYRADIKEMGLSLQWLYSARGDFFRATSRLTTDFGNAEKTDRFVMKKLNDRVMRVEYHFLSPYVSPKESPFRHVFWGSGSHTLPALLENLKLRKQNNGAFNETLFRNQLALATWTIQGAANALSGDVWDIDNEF

CC[C@H](C)[C@@H]1NC(=O)[C@H](Cc2ccc(OC)cc2)NC(=O)[C@H](Cc2ccc(O)cc2)NC(=O)[C@H](CC(N)=O)NC(=O)[C@H](Cc2c[nH]c3ccccc23)N(C)C(=O)[C@H](C(C)C)NC(=O)[C@H](Cc2cccc(Cl)c2)N(C)C(=O)[C@H](C(C)C)NC(=O)[C@H](C)NC(=O)CSC[C@@H](C(=O)NCCOCCOCCOCCOCCC(N)=O)NC(=O)[C@H](Cc2ccc(O)cc2)N(C)C(=O)[C@H](Cc2ccccc2)NC(=O)[C@@H](CCCNC(=N)N)NC(=O)[C@H](CCCNC(=N)N)NC(=O)C(C)(C)NC1=O [compound 333] ({CH2CO}-AV[NMePhe(3-Cl)]V[NMeW]NYY(Me)I[Aib]R[dR]F[NMeY]C[PEG4]-NH2; thioether N-15)
Kd [1]: 0.001 to 0.1 µM

CC[C@H](C)[C@@H]1NC(=O)[C@H](Cc2ccc(O)cc2)NC(=O)[C@H](Cc2ccc(O)cc2)NC(=O)[C@H](CC(N)=O)NC(=O)[C@H](Cc2c[nH]c3ccc(Cl)cc23)NC(=O)[C@H](C(C)C)NC(=O)[C@H](Cc2ccc(F)cc2)N(C)C(=O)[C@H](C(C)C)NC(=O)[C@H](C)NC(=O)CSC[C@@H](C(N)=O)NC(=O)[C@H](Cc2ccc(O)cc2)N(C)C(=O)[C@H](Cc2ccccc2)NC(=O)[C@H](CCCCNC(=O)CCOCCOCCOCCOC)NC(=O)[C@H](CCCNC(=N)N)N(C)C(=O)[C@H]([C@@H](C)CC)NC1=O [compound 489]
Kd (SPR, hTfR, class symbols A-D, read-out: KD (column without head, continuation of the table series)): 0.1 to 1 µM

CC[C@H](C)[C@@H]1NC(=O)[C@H](Cc2ccc(O)cc2)NC(=O)[C@H](Cc2ccc(O)cc2)NC(=O)[C@H](CC(N)=O)NC(=O)[C@H](Cc2c[nH]c3ccccc23)N(C)C(=O)[C@H](C(C)C)NC(=O)[C@H](Cc2ccccc2)N(C)C(=O)[C@H](C(C)C)NC(=O)[C@H](C)NC(=O)CSC[C@@H](C(=O)NCC(=O)NCC(=O)N[C@@H](CCCNC(=N)N)C(=O)NCC(=O)N[C@@H](CCCNC(=N)N)C(=O)N[C@@H](CO)C(=O)N[C@@H](CCCCNC(=O)C2CCC(CN3C(=O)C=CC3=O)CC2)C(N)=O)NC(=O)[C@H](Cc2ccc(O)cc2)N(C)C(=O)[C@H](Cc2ccc(O)cc2)NC(=O)[C@H](CCCNC(=N)N)NC(=O)[C@H](CCCNC(=N)N)NC(=O)[C@H]([C@@H](C)CC)NC1=O (some centres unmarked) [compound 198]
Kd [2]: 0.001 to 0.1 µM

CC[C@H](C)[C@@H]1NC(=O)[C@H](Cc2ccc(OC)cc2)NC(=O)[C@H](Cc2ccc(O)cc2)NC(=O)[C@H](CC(N)=O)NC(=O)[C@H](Cc2c[nH]c3ccccc23)N(C)C(=O)[C@H](C(C)C)NC(=O)[C@H](Cc2cccc(Cl)c2)N(C)C(=O)[C@H](CCC(=O)N[C@H](CCC(=O)O)C(=O)O)NC(=O)[C@H](C)NC(=O)CSC[C@@H](C(N)=O)NC(=O)[C@H](Cc2ccc(O)cc2)N(C)C(=O)[C@H](Cc2ccccc2)NC(=O)[C@@H](CCCNC(=N)N)NC(=O)[C@H](CCCNC(=N)N)NC(=O)[C@H]([C@@H](C)CC)NC1=O [compound 241]
Kd [3]: 0.001 to 0.1 µM

CC[C@H](C)[C@@H]1NC(=O)[C@H](Cc2ccc(O)cc2)NC(=O)[C@H](Cc2ccc(O)cc2)NC(=O)[C@H](CC(N)=O)NC(=O)[C@H](Cc2c[nH]c3ccccc23)NC(=O)[C@H](C(C)C)NC(=O)[C@H](Cc2ccccc2)N(C)C(=O)[C@H](C(C)C)NC(=O)[C@H](C)NC(=O)CSC[C@@H](C(=O)NCCOCCOCCOCCOCCOCCOCCOCCOCCOCCOCCOCCOCCC(N)=O)NC(=O)[C@H](Cc2ccc(O)cc2)N(C)C(=O)[C@H](C)NC(=O)[C@H](CCCNC(=N)N)NC(=O)[C@H](CCCNC(=N)N)NC(=O)[C@H]([C@@H](C)CC)NC1=O [compound 123]
Kd [4]: 0.001 to 0.1 µM

CC[C@H](C)[C@@H]1NC(=O)[C@H](Cc2ccc(O)cc2)NC(=O)[C@H](Cc2ccc(O)cc2)NC(=O)[C@H](CC(N)=O)NC(=O)[C@H](Cc2c[nH]c3ccccc23)NC(=O)[C@H](C(C)C)NC(=O)[C@H](Cc2ccccc2)N(C)C(=O)[C@H](C(C)C)NC(=O)[C@H](C)NC(=O)CSC[C@@H](C(=O)N(C)CC(=O)N(C)CC(=O)N(C)CC(N)=O)NC(=O)[C@H](Cc2ccc(O)cc2)N(C)C(=O)[C@H](Cc2ccc(O)cc2)NC(=O)[C@H](CCCNC(=N)N)NC(=O)[C@H](CCCNC(=N)N)NC(=O)[C@H]([C@@H](C)CC)NC1=O [compound 298]
Kd [1]: 0.001 to 0.1 µM

CC[C@H](C)[C@@H]1NC(=O)[C@H](Cc2ccc(O)cc2)NC(=O)[C@H](Cc2ccc(O)cc2)NC(=O)[C@H](CC(N)=O)NC(=O)[C@H](Cc2c[nH]c3ccccc23)NC(=O)[C@H](C(C)C)NC(=O)[C@H](Cc2ccccc2)N(C)C(=O)[C@H](C(C)C)NC(=O)[C@H](C)NC(=O)CSC[C@@H](C(=O)NCC(=O)NCC(=O)N[C@@H](CCCCNC(=O)C2CCC(CN3C(=O)C=CC3=O)CC2)C(N)=O)NC(=O)[C@H](Cc2ccc(O)cc2)N(C)C(=O)[C@H](Cc2ccc(O)cc2)NC(=O)[C@H](CCCNC(=N)N)NC(=O)[C@H](CCCNC(=N)N)NC(=O)[C@H]([C@@H](C)CC)NC1=O (some centres unmarked) [compound 195]
Kd [2]: 0.001 to 0.1 µM

CC[C@H](C)[C@@H]1NC(=O)[C@H](Cc2ccc(O)cc2)NC(=O)[C@H](Cc2ccc(O)cc2)NC(=O)[C@H](CC(N)=O)NC(=O)[C@H](Cc2c[nH]c3ccccc23)NC(=O)[C@H](C(C)C)NC(=O)[C@H](Cc2ccccc2)N(C)C(=O)[C@H](C(C)C)NC(=O)[C@H](C)NC(=O)CSC[C@@H](C(=O)NCC(=O)NCC(=O)N[C@@H](CCC(=O)O)C(=O)N[C@@H](CO)C(=O)N[C@@H](CCC(=O)O)C(=O)N[C@@H](CO)C(=O)N[C@@H](CCCCNC(=O)C2CCC(CN3C(=O)C=CC3=O)CC2)C(N)=O)NC(=O)[C@H](Cc2ccc(O)cc2)N(C)C(=O)[C@H](Cc2ccc(O)cc2)NC(=O)[C@H](CCCNC(=N)N)NC(=O)[C@H](CCCNC(=N)N)NC(=O)[C@H]([C@@H](C)CC)NC1=O (some centres unmarked) [compound 192]
Kd [2]: 0.001 to 0.1 µM

CC[C@H](C)[C@@H]1NC(=O)[C@H](Cc2ccc(O)cc2)NC(=O)[C@H](Cc2ccc(O)cc2)NC(=O)[C@H](CC(N)=O)NC(=O)[C@H](Cc2c[nH]c3ccccc23)NC(=O)[C@H](C(C)C)NC(=O)[C@H](Cc2ccc(OC)cc2)N(C)C(=O)[C@H](C(C)C)NC(=O)[C@H](C)NC(=O)CSC[C@@H](C(=O)NCCOCCOCCOCCOCCOCCOCCOCCOCCOCCOCCOCCOCCC(N)=O)NC(=O)[C@H](Cc2ccc(O)cc2)N(C)C(=O)[C@H](Cc2ccc(O)cc2)NC(=O)[C@H](CCCNC(=N)N)NC(=O)[C@H](CCCNC(=N)N)NC(=O)[C@H]([C@@H](C)CC)NC1=O [compound 136] ({CH2CO}-AV[NMeY](Me)VWNYYIIRRY[NMeY]C[PEG12]-NH2; thioether N-15)
Kd [4]: 0.001 to 0.1 µM

CC[C@H](C)[C@@H]1NC(=O)[C@H](Cc2ccc(OC)cc2)NC(=O)[C@H](Cc2ccc(O)cc2)NC(=O)[C@H](CC(N)=O)NC(=O)[C@H](Cc2c[nH]c3ccccc23)N(C)C(=O)[C@H](C(C)C)NC(=O)[C@H](Cc2cccc(Cl)c2)N(C)C(=O)[C@H](C(C)C)NC(=O)[C@H](C)NC(=O)CSC[C@@H](C(=O)NCCOCCOCCOCCOCCC(N)=O)NC(=O)[C@H](Cc2ccc(O)cc2)NC(=O)[C@H](Cc2ccccc2)NC(=O)[C@@H](CCCNC(=N)N)NC(=O)C(C)(C)NC(=O)[C@H]([C@@H](C)CC)NC1=O [compound 352]
Kd [5]: 0.001 to 0.1 µM

CC[C@H](C)[C@@H]1NC(=O)[C@H](Cc2ccc(OC)cc2)NC(=O)[C@H](Cc2ccc(O)cc2)NC(=O)[C@H](CC(N)=O)NC(=O)[C@H](Cc2c[nH]c3ccccc23)N(C)C(=O)[C@H](C(C)C)NC(=O)[C@H](Cc2cccc(Cl)c2)N(C)C(=O)[C@H](C(C)C)NC(=O)[C@H](C)NC(=O)CSC[C@@H](C(=O)NCC(=O)NCC(=O)NCC(=O)NCC(=O)N[C@@H](CO)C(=O)N[C@@H](CO)C(=O)N[C@@H](CS)C(N)=O)NC(=O)[C@H](Cc2ccc(O)cc2)N(C)C(=O)[C@H](Cc2ccccc2)NC(=O)[C@@H](CCCNC(=N)N)NC(=O)[C@H](CCCNC(=N)N)NC(=O)[C@H](CCCCCN)NC1=O [compound 341]
Kd: 0.001 to 0.1 µM

CC[C@H](C)[C@@H]1NC(=O)[C@H](Cc2ccc(O)cc2)NC(=O)[C@H](Cc2ccc(O)cc2)NC(=O)[C@H](CC(N)=O)NC(=O)[C@H](Cc2c[nH]c3ccccc23)NC(=O)[C@H](C(C)C)NC(=O)[C@H](Cc2ccccc2)N(C)C(=O)[C@H](C(C)C)NC(=O)[C@H](C)NC(=O)CSC[C@@H](C(=O)NCCOCCOCCOCCOCCOCCOCCOCCOCCOCCOCCOCCOCCC(N)=O)NC(=O)[C@H](Cc2ccc(O)cc2)N(C)C(=O)[C@H](Cc2ccc(O)cc2)NC(=O)[C@H](CCCNC(=N)N)NC(=O)[C@H](CCCNC(=N)N)NC(=O)[C@H](Cc2ccc(O)cc2)NC1=O [compound 115] ({CH2CO}-AV[NMeF]VWNYYIYRRY[NMeY]C[PEG12]-NH2; thioether N-15)
Kd [4]: 0.001 to 0.1 µM

CC[C@H](C)[C@@H]1NC(=O)[C@H](Cc2ccc(O)cc2)NC(=O)[C@H](Cc2ccc(O)cc2)NC(=O)[C@H](CC(N)=O)NC(=O)[C@H](Cc2cn(CCO)c3ccccc23)NC(=O)[C@H](C(C)C)NC(=O)[C@H](Cc2ccccc2)N(C)C(=O)[C@H](C(C)C)NC(=O)[C@H](C)NC(=O)CSC[C@@H](C(N)=O)NC(=O)[C@H](Cc2ccc(O)cc2)N(C)C(=O)[C@H](Cc2ccc(O)cc2)NC(=O)[C@H](CCCNC(=N)N)NC(=O)[C@H](CCCNC(=N)N)NC(=O)[C@H]([C@@H](C)CC)NC1=O [compound 271]
Kd [3]: 0.001 to 0.1 µM

CC[C@H](C)[C@@H]1NC(=O)[C@H](Cc2ccc(OC)cc2)NC(=O)[C@H](Cc2ccc(O)cc2)NC(=O)[C@H](CC(N)=O)NC(=O)[C@H](Cc2c[nH]c3ccccc23)N(C)C(=O)[C@H](C(C)C)NC(=O)[C@H](Cc2cccc(Cl)c2)N(C)C(=O)[C@H](C(C)C)NC(=O)[C@H](C)NC(=O)CSC[C@@H](C(=O)NCC(=O)N[C@H](CCC(=O)O)C(=O)NCC(=O)N[C@H](CCC(=O)O)C(=O)N[C@@H](CO)C(=O)N[C@@H](CO)C(=O)N[C@@H](CS)C(N)=O)NC(=O)[C@H](Cc2ccc(O)cc2)N(C)C(=O)[C@H](Cc2ccccc2)NC(=O)[C@@H](CCCNC(=N)N)NC(=O)[C@H](CCCNC(=N)N)NC(=O)[C@H]([C@@H](C)CC)NC1=O [compound 403]
Kd [5]: 0.001 to 0.1 µM
